“And” between values parts separate entries of the source, which are not always exact repeats. Equal values may be shown once.
Experiments:
Hemolysis assay = assay type: cell-based; conditions: human, red blood cells (washed RBC pellet); read-out: Percentage Hemolysis ± SD
Protocol: A fresh blood sample (5 mL) from a healthy donor was collected in an EDTA tube. The blood was transferred to microcentrifuge tubes and centrifugedfor 5 min at 1000 rpm to obtain the red blood cells (RBCs). The supernatant was then discarded, and the RBCpellet was washed three times with phosphate-buffered saline (PBS). The RBC pellet was collected after washing and 20µL of sample solution in DMSO was added. The tubes were incubated at 37 °C for 60 min. Having been removed from the incubator, the tubes were recentrifuged at 13,000 rpm for 5 min. The supernatant was collected and diluted with chilled PBS solution. Absorbance was recordedat 517 nm. […] The experiment wasconducted in triplicate, and the RBC lysis percentage was calculated using this formula [40]: % Age hemolysis =Absorbance of sample−Absorbance of negative control ×100/Absorbance of positive control

blood clot = assay: Thrombolysis assay (clot lysis); design: species or system human; conditions: sample solution in DMSO, 3 h at 37 °C, ABTS positive control, triplicate
Protocol: The thrombolytic assay was performedaccording tomethodologyin the literature. A blood sample (3 mL) was collected from a healthy human donor, and 500 µL was transferred to pre-weighed, clean Eppendorf tubes. The tubes containing the blood wereweighed again andincubatedfor 1 h at 37 °C to induce clot formation. The serum was then discarded, and the tube containing theclot was weighed. An amount of 40 µL of sample solution in DMSO was added to the clot.The tubes were again incubated for 3 h at 37 °C, and the lysis resultswere observed. ABTS was used as a positivecontrol, while DMSO was used as a negative control in this assay. The experiment was performed in triplicate, and the lysis percentage was calculated using the formula below: % Age clot lysis =Initial clot weight−Final clot weight ×100/Initial clot weight

[1] = test system: A549 lung cancer cell line; assay: MTT assay, cell viability; assay type: cell-based, human; conditions: A549, 48 h, mean ± SD in triplicate
Protocol: The A549 cell line was treated with synthesized compounds in a final concentration of DMSO (dimethyl sulfoxide) of less than 1%.
The cytotoxic therapeutic potential of synthesized structural hybrids was evaluated usinga standard MTT (3-(4,5-dimethylthiazol-2-yl)-2,5-diphenyltetrazolium bromide) assay. The cells of theA549 cell line were grown, overnight, in a microculture of 96-well plates. […] Following this, 150 μL of control DMSO was added to formazan crystals.The percentage of cell viability was determined viaquantified absorbance in a microplate readerat 490 nm wavelength.

SMILES | melting point [°C] | IC50 ([1]; Homo sapiens) [µM] | hemolysis at 60 min (Hemolysis assay) [%] | Percentage Thrombolysis ± SD (blood clot) | Percentage Cell viability A549 (Lung Cancer) ± SD [1] [%] | IC50 [1] [µM]
O=C(CSc1nnc(-c2cc3ccccc3o2)o1)N1CCOCC1 [Compound 5b] | 181 to 182 |  | 22.12 ± 0.008 | 50.7% and 50.7 ± 0.081% | 45.99 ± 4.22 | 
CCOc1ccc(NC(=O)CSc2nnc(-c3cc4ccccc4o3)o2)cc1 [Compound 5e] | 154 to 156 | 17.9 ± 0.46 | 0.5 ± 0.008 | 52.4% and 52.4 ± 0.081% | 34.47 ± 2.19 | 
C[C@@H](Oc1cc(-c2cnn(C3CCNCC3)c2)cnc1N)c1c(Cl)ccc(F)c1Cl [Crizotinib, crizotinib, reference compound] |  | 8.54 ± 0.84 |  |  |  | 
O=C(CSc1nnc(-c2cc3ccccc3o2)o1)Nc1ccccc1 [Compound 5a] | 212 to 214 |  | 3.7 ± 0.008 | 56.8% and 56.8 ± 0.081% | 64.1 ± 1.72 | 
COc1ccccc1NC(=O)CSc1nnc(-c2cc3ccccc3o2)o1 [Compound 5d] | 176 to 178 | 6.3 ± 0.7 | 5.02 ± 0.008 | 53.5% and 53.5 ± 0.081% | 27.49 ± 1.90 | 
N.N.[Cl][Pt][Cl] [Cisplatin, cisplatin, reference compound] |  |  |  |  |  | 3.88 ± 0.76
CCn1c(=NN=c2sc3cc(S(=O)(=O)O)ccc3n2CC)sc2cc(S(=O)(=O)O)ccc21 [ABTS, reference compound] |  |  |  | 86% |  | 
CCN(CC)C(=O)CSc1nnc(-c2cc3ccccc3o2)o1 [Compound 5g] | 96 to 97 |  | 4.86 ± 0.047 | 48.3% and 48.3 ± 0.081% | 41.45 ± 4.10 | 

Further lines, with some results ahead:

melting point [°C] | IC50 ([1]; Homo sapiens) [µM] | SMILES | hemolysis at 60 min (Hemolysis assay) [%] | Percentage Thrombolysis ± SD (blood clot) | Percentage Cell viability A549 (Lung Cancer) ± SD [1] [%] | IC50 [1] [µM]
173 to 175 |  | O=C(CSc1nnc(-c2cc3ccccc3o2)n1-c1ccccc1)N1CCOCC1 [Compound 7b] | 0.1 ± 0.004 | 52.5% and 52.5 ± 0.081% | 57.62 ± 4.94 | 
229 to 230 | 19.8 ± 0.54 | O=C(CSc1nnc(-c2cc3ccccc3o2)n1-c1ccccc1)Nc1ccc(Cl)cc1 [Compound 7g] | 23.4 ± 0.081 | 49.06% and 49.06 ± 0.047% | 36.26 ± 0.41 | 
226 to 227 |  | Cc1ccc(NC(=O)CSc2nnc(-c3cc4ccccc4o3)n2-c2ccccc2)c(C)c1 [Compound 7f] | 15.7 ± 0.081 | 61.4% and 61.4 ± 0.081% | 99.1 ± 5.04 | 
217 to 219 | 10.9 ± 0.94 | O=C(CSc1nnc(-c2cc3ccccc3o2)n1-c1ccccc1)Nc1ccc(Cl)cc1Cl [Compound 7h] | 14.8 ± 0.081 | 48.1% and 48.1 ± 0.081% | 29.29 ± 3.98 | 
